Read-outs that look alike come from different tables or passages of the source.
Legend:
JNK3 = JNK3 (Homo sapiens, UniProt P53779); test: JNK3 enzyme-linked immunosorbent assay; assay type: biochemical; settings: for inhibition at 10 µM: read-out: Percent inhibition of JNK3 at indicated concentration
p38α MAPK = p38α MAPK (Homo sapiens, UniProt Q16539); test: p38α MAPK enzyme-linked immunosorbent assay; assay type: biochemical; settings: for inhibition at 10 µM: read-out: Percent inhibition of p38α MAPK at indicated concentration
Chain of p38α MAPK (Q16539 whole entry): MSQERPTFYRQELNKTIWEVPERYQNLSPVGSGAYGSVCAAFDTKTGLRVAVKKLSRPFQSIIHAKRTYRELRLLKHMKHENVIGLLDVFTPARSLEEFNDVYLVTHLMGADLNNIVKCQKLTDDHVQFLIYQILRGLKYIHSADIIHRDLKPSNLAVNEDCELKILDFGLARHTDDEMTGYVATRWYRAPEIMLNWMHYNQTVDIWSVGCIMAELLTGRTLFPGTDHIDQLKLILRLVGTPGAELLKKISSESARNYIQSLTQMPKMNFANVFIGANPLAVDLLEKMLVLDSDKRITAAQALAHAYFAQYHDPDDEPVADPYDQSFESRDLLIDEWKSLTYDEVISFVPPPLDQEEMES

[1] = 2-methylaminothiazole versus 2-sulfanylimidazole (compound 5)

Chain of JNK3 (P53779 whole entry): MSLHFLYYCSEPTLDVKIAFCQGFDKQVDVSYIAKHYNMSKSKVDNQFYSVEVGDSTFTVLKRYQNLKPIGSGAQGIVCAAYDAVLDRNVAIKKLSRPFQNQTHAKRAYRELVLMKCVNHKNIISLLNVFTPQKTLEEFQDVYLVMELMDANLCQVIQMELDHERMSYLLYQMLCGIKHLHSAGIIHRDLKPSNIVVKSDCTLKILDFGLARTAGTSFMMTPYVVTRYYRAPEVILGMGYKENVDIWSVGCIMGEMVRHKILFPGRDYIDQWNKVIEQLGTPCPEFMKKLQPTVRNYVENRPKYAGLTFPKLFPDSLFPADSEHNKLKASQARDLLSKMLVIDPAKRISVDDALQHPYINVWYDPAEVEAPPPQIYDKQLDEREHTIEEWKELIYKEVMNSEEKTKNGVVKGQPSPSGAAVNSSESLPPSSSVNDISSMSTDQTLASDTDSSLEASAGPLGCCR

Structure (SMILES) | IC50 (JNK3) | IC50 (p38α MAPK) | inhibition at 10 µM (p38α MAPK) | further results
CSc1nc(C)c(-c2ccnc(NC3CCC3)c2)[nH]1 [Compound 48c, N-Cyclobutyl-4-(4-methyl-2-(methylthio)-1H-imidazol-5-yl)pyridin-2-amine] | 3040 nM | > 10000 nM | 36% | –
CSc1nc(C)c(-c2ccnc(Nc3ccc(NC(C)=O)cc3)c2)[nH]1 [Compound 48n, N-(4-((4-(4-Methyl-2-(methylthio)-1H-imidazol-5-yl)pyridin-2-yl)amino)phenyl)acetamide] | 415 ± 40 nM | > 10000 nM | 32% | –
CSc1nc(C)c(-c2ccnc(Nc3ccc(N)cc3)c2)[nH]1 [Compound 48m, N1-(4-(4-Methyl-2-(methylthio)-1H-imidazol-5-yl)pyridin-2-yl)benzene-1,4-diamine] | 353 ± 58 nM | > 10000 nM | 38% | –
CSc1nc(C)c(-c2ccnc(Nc3ccc(NC(=O)C(C)(C)C)cc3)c2)[nH]1 [Compound 48q, N-(4-((4-(4-Methyl-2-(methylthio)-1H-imidazol-5-yl)pyridin-2-yl)amino)phenyl)pivalamide] | 2370 nM | > 10000 nM | 15% | –
Clc1ccccc1-c1nc[nH]c1-c1ccnc(Nc2ccc(N3CCOCC3)cc2)c1 [Compound 18b, 4-(4-(2-Chlorophenyl)-1H-imidazole-5-yl)-N-(4-morpholinophenyl)pyridin-2-amine] | 60 ± 8 nM | 38 ± 2 nM | – | –
c1cc(-c2[nH]cnc2C2CCCC2)cc(Nc2ccc(N3CCOCC3)cc2)n1 [Compound 18h, 4-(4-Cyclopentyl-1H-imidazol-5-yl)-N-(4-morpholinophenyl)pyridin-2-amine] | – | 1720 nM | – | IC50 (JNK3; read-out: IC50 ± SD JNK3, ELISA, mean of three experiments (SP600125 n = 16)): 2190 nM
CSc1nc(C)c(-c2ccnc(N[C@H]3CC[C@H](NC(=O)c4ccccc4)CC3)c2)[nH]1 [Compound 48j, N-(trans-4-((4-(4-Methyl-2-(methylthio)-1H-imidazol-5-yl)pyridin-2-yl)amino)cyclohexyl)benzamide] | – | > 10000 nM | 12% | –
CSc1nc(C)c(-c2ccnc(NC3CCCCC3)c2)[nH]1 [Compound 48e, N-Cyclohexyl-4-(4-methyl-2-(methylthio)-1H-imidazol-5-yl)pyridin-2-amine] | 671 ± 74 nM | > 10000 nM | 31% | –
c1cc(-c2[nH]cnc2C2CC2)cc(Nc2ccc(N3CCOCC3)cc2)n1 [Compound 18j, 4-(4-Cyclopropyl-1H-imidazol-5-yl)-N-(4-morpholinophenyl)pyridin-2-amine] | 1080 nM | 4020 nM | – | –
Brc1ccccc1-c1nc[nH]c1-c1ccnc(Nc2ccc(N3CCOCC3)cc2)c1 [Compound 18c, 4-(4-(2-Bromophenyl)-1H-imidazol-5-yl)-N-(4-morpholinophenyl)pyridin-2-amine] | 131 ± 21 nM | 61 ± 2 nM | – | –
CSc1nc(C)c(-c2ccnc(N[C@H]3CC[C@H](N)CC3)c2)[nH]1 [Compound 48h, trans-N1-(4-(4-Methyl-2-(methylthio)-1H-imidazol-5-yl)pyridin-2-yl)cyclohexane-1,4-diamine] | 941 ± 75 nM | > 10000 nM | 46% | fold drop in potency on JNK3 versus parent compound 44 (JNK3): 3 fold
CSc1nc(C)c(-c2ccnc(NC3CCCC3)c2)[nH]1 [Compound 48d, N-Cyclopentyl-4-(4-methyl-2-(methylthio)-1H-imidazol-5-yl)pyridin-2-amine] | 1570 nM | > 10000 nM | 47% | –
CSc1nc(C)c(-c2ccnc(Nc3ccc(NC(=O)C4CCCCC4)cc3)c2)[nH]1 [Compound 48p, N-(4-((4-(4-Methyl-2-(methylthio)-1H-imidazol-5-yl)pyridin-2-yl)amino)phenyl)cyclohexanecarboxamide] | 1540 nM | > 10000 nM | 27% | –
CSc1nc(C)c(-c2ccnc(N[C@H]3CC[C@H](NC(=O)C4CCCCC4)CC3)c2)[nH]1 [Compound 48k, N-(trans-4-((4-(4-Methyl-2-(methylthio)-1H-imidazol-5-yl)pyridin-2-yl)amino)cyclohexyl)cyclohexanecarboxamide] | 2230 nM | > 10000 nM | 10% | –
Oc1c2ccccc2c2c3c(cccc13)N=N2 [SP600125, reference compound] | 171 ± 36 nM | – | – | –
CCc1nc[nH]c1-c1ccnc(Nc2ccc(N3CCOCC3)cc2)c1 [Compound 39, 4-(4-Ethyl-1H-imidazol-5-yl)-N-(4-morpholinophenyl)pyridin-2-amine] | – | > 10000 nM | 34% | –

Continued, in another order:

IC50 (JNK3) | IC50 (p38α MAPK) | inhibition at 10 µM (p38α MAPK) | Structure (SMILES) | further results
833 ± 139 nM | > 10000 nM | 41% | Cc1nc[nH]c1-c1ccnc(Nc2ccc(N3CCOCC3)cc2)c1 [Compound 38, 4-(4-Methyl-1H-imidazol-5-yl)-N-(4-morpholinophenyl)pyridin-2-amine] | –
819 ± 141 nM | > 10000 nM | 37% | CSc1nc(C)c(-c2ccnc(N[C@H]3CC[C@H](NC(C)=O)CC3)c2)[nH]1 [Compound 48i, N-(trans-4-((4-(4-Methyl-2-(methylthio)-1H-imidazol-5-yl)pyridin-2-yl)amino)cyclohexyl)acetamide] | –
38 ± 2 nM | 17 ± 1 nM | – | CSc1nc(-c2ccc(F)cc2)c(-c2ccnc(Nc3ccc(N4CCOCC4)cc3)c2)[nH]1 [Compound 5, 4-(4-(4-Fluorophenyl)-2-(methylthio)-1H-imidazol-5-yl)-N-(4-morpholinophenyl)pyridin-2-amine] | –
2500 nM | > 10000 nM | 9% | CNc1nc(-c2ccnc(Nc3ccc(N4CCOCC4)cc3)c2)c(C)s1 [Compound 78, N,5-Dimethyl-4-(2-((4-morpholinophenyl)amino)pyridin-4-yl)thiazol-2-amine] | –
2590 nM | > 10000 nM | 34% | CSc1nc(C)c(-c2ccnc(NC(C)C(C)C)c2)[nH]1 (stereo not shown) [Compound 48a, 4-(4-Methyl-2-(methylthio)-1H-imidazol-5-yl)-N-(3-methylbutan-2-yl)pyridin-2-amine] | –
7610 nM | 3460 nM | – | CSc1nc(C)c(-c2ccnc(NC(C)c3ccccc3)c2)[nH]1 (stereo not shown) [Compound 48b, 4-(4-Methyl-2-(methylthio)-1H-imidazol-5-yl)-N-(1-phenylethyl)pyridin-2-amine] | –
276 ± 10 nM | 323 ± 14 nM | – | Fc1ccc(-n2cncc2-c2ccnc(Nc3ccc(N4CCOCC4)cc3)c2)cc1 [Compound 66, 4-(1-(4-Fluorophenyl)-1H-imidazol-5-yl)-N-(4-morpholinophenyl)pyridin-2-amine] | –
31 ± 3 nM | 16 ± 3 nM | – | c1ccc2cc(-c3nc[nH]c3-c3ccnc(Nc4ccc(N5CCOCC5)cc4)c3)ccc2c1 [Compound 18e, N-(4-Morpholinophenyl)-4-(4-(naphthalen-2-yl)-1H-imidazol-5-yl)pyridin-2-amine] | –
1720 nM | 726 ± 21 nM | – | c1cc(-c2[nH]cnc2C2CCCCC2)cc(Nc2ccc(N3CCOCC3)cc2)n1 [Compound 18g, 4-(4-Cyclohexyl-1H-imidazol-5-yl)-N-(4-morpholinophenyl)pyridin-2-amine] | fold higher activity for p38α MAPK than for JNK3 (p38α MAPK; ratio of IC50 values): 2 fold
– | > 10000 nM | 43% | Cc1[nH]c(N)nc1-c1ccnc(Nc2ccc(N3CCOCC3)cc2)c1 [Compound 47, 4-(2-Amino-5-methyl-1H-imidazol-4-yl)-N-(4-morpholinophenyl)pyridin-2-amine] | –
714 ± 21 nM | > 10000 nM | 32% | Cn1cncc1-c1ccnc(Nc2ccc(N3CCOCC3)cc2)c1 [Compound 67, 4-(1-Methyl-1H-imidazol-5-yl)-N-(4-morpholinophenyl)pyridin-2-amine] | –
> 10000 nM | > 10000 nM | 15% | Cn1ccnc1-c1ccnc(Nc2ccc(N3CCOCC3)cc2)c1 [Compound 71, 4-(1-Methyl-1H-imidazol-2-yl)-N-(4-morpholinophenyl)pyridin-2-amine] | inhibition at 10 µM (JNK3): 42%
457 ± 72 nM | > 10000 nM | 35% | CSc1nc(C)c(-c2ccnc(N[C@H]3CC[C@H](O)CC3)c2)[nH]1 [Compound 48g, trans-4-((4-(4-Methyl-2-(methylthio)-1H-imidazol-5-yl)pyridin-2-yl)amino)cyclohexan-1-ol] | –
– | > 10000 nM | 13% | CSc1nc(C)c(-c2ccnc(N[C@H]3CC[C@H](NC(=O)C(C)(C)C)CC3)c2)[nH]1 [Compound 48l, N-(trans-4-((4-(4-Methyl-2-(methylthio)-1H-imidazol-5-yl)pyridin-2-yl)amino)cyclohexyl)pivalamide] | –
> 10000 nM | > 10000 nM | 41% | CC(C)(C)c1nc[nH]c1-c1ccnc(Nc2ccc(N3CCOCC3)cc2)c1 [Compound 18k, 4-(4-(tert-Butyl)-1H-imidazol-y-yl)-N-(4-morpholinophenyl)pyridin-2-amine] | inhibition at 10 µM (JNK3): 32%
15 ± 3 nM | 2 nM | – | CNc1nc(-c2ccc(F)cc2)c(-c2ccnc(Nc3ccc(N4CCOCC4)cc3)c2)s1 [Compound 75, 4-(4-Fluorophenyl)-N-methyl-5-(2-((4-morpholinophenyl)amino)pyridin-4-yl)thiazol-2-amine] | fold increase in inhibitory activity for JNK3 (JNK3; [1]): 2.5 fold; fold increase in inhibitory activity for p38α MAPK (p38α MAPK; [1]): 8 fold
562 ± 21 nM | > 10000 nM | 43% | CSc1ncc(-c2ccnc(Nc3ccc(N4CCOCC4)cc3)c2)[nH]1 [Compound 43, 4-(2-(Methylthio)-1H-imidazol-5-yl)-N-(4-morpholinophenyl)pyridin-2-amine] | –
– | > 10000 nM | 27% | CSc1nc(C)c(-c2ccnc(NC3CCOCC3)c2)[nH]1 [Compound 48f, 4-(4-Methyl-2-(methylthio)-1H-imidazol-5-yl)-N-(tetrahydro-2H-pyran-4-yl)pyridin-2-amine] | –

From publication PMC6072243 (ACS Omega, 2018)
